This is an account of results in patent US20240228504A1, “SUBSTITUTED TRICYCLIC AMIDES, ANALOGUES THEREOF, AND METHODS USING SAME” (Arbutus Biopharma Corporation, priority 2020, published 2024).

The structures appear in SMILES notation. pEC50: −log10 of the molar value.

For this experiment, the system named is HBV rcDNA in HepDE19 cells. The experiment in a line: HepDE19 assay with bDNA quantitation of HBV rcDNA. It is filed as cell-based, hepatitis B virus. To be noted: HepDE19 assay, inhibition of rcDNA formation, bDNA quantitation; read-out: DE-19bDNA EC50.
As a reminder, the pEC50 is the negative decadic logarithm of the EC50, by convention in mol/L. As to `CN(C(=O)c1cc2ccccc2[nH]1)C1COCc2[nH]c(=O)c3cc(F)c(F)cc3c21` (single isomer, unassigned) [Compound 22, N-(8,9-Difluoro-6-oxo-1,4,5,6-tetrahydro-2H-pyrano[3,4-c]isoquinolin-1-yl)-N-methyl-1H-indole-2-carboxamide], the pEC50 was 8.00. As to `CN(C(=O)c1cc2c(F)cccc2[nH]1)C1COCc2[nH]c(=O)c3cc(F)c(F)cc3c21` (single isomer, unassigned) [Compound 23, N-(8,9-Difluoro-6-oxo-1,4,5,6-tetrahydro-2H-pyrano[3,4-c]isoquinolin-1-yl)-4-fluoro-N-methyl-1H-indole-2-carboxamide], the negative-log EC50 (pEC50) is 5.35. Then `CN(C(=O)c1cc2c(F)cccc2[nH]1)C1COCc2[nH]c(=O)c3cc(F)c(F)cc3c21` (single isomer, unassigned) [Compound 24, N-(8,9-Difluoro-6-oxo-1,4,5,6-tetrahydro-2H-pyrano[3,4-c]isoquinolin-1-yl)-4-fluoro-N-methyl-1H-indole-2-carboxamide], with 8.40; and `CN(C(=O)c1cc2ccc(F)cc2[nH]1)C1COCc2[nH]c(=O)c3cc(F)c(F)cc3c21` (single isomer, unassigned) [Compound 25, N-(8,9-Difluoro-6-oxo-1,4,5,6-tetrahydro-2H-pyrano[3,4-c]isoquinolin-1-yl)-6-fluoro-N-methyl-1H-indole-2-carboxamide], with 6.09. Then `CN(C(=O)c1cc2ccc(F)cc2[nH]1)C1COCc2[nH]c(=O)c3cc(F)c(F)cc3c21` (single isomer, unassigned) [Compound 26, N-(8,9-Difluoro-6-oxo-1,4,5,6-tetrahydro-2H-pyrano[3,4-c]isoquinolin-1-yl)-6-fluoro-N-methyl-1H-indole-2-carboxamide], with 8.00; and `CN(C(=O)c1cc2cc(F)ccc2[nH]1)C1COCc2[nH]c(=O)c3cc(F)c(F)cc3c21` (single isomer, unassigned) [Compound 27, N-(8,9-Difluoro-6-oxo-1,4,5,6-tetrahydro-2H-pyrano[3,4-c]isoquinolin-1-yl)-5-fluoro-N-methyl-1H-indole-2-carboxamide], with 6.43. The same measure for `CN(C(=O)c1cc2cc(F)ccc2[nH]1)C1COCc2[nH]c(=O)c3cc(F)c(F)cc3c21` (single isomer, unassigned) [Compound 28, N-(8,9-Difluoro-6-oxo-1,4,5,6-tetrahydro-2H-pyrano[3,4-c]isoquinolin-1-yl)-5-fluoro-N-methyl-1H-indole-2-carboxamide]: 8.40; for `CN(C(=O)c1cc2cc(F)ccc2[nH]1)C1COCc2[nH]c(=O)c3cc(F)ccc3c21` (single isomer, unassigned) [Compound 29, 5-Fluoro-N-(8-fluoro-6-oxo-1,4,5,6-tetrahydro-2H-pyrano[3,4-c]isoquinolin-1-yl)-N-methyl-1H-indole-2-carboxamide]: 5.82; for `CN(C(=O)c1cc2cc(F)ccc2[nH]1)C1COCc2[nH]c(=O)c3cc(F)ccc3c21` (single isomer, unassigned) [Compound 30, 5-Fluoro-N-(8-fluoro-6-oxo-1,4,5,6-tetrahydro-2H-pyrano[3,4-c]isoquinolin-1-yl)-N-methyl-1H-indole-2-carboxamide]: 8.00. For `CN(C(=O)c1cc2ccc(F)cc2[nH]1)C1COCc2[nH]c(=O)c3cc(F)ccc3c21` (single isomer, unassigned) [Compound 31, 6-Fluoro-N-(8-fluoro-6-oxo-1,4,5,6-tetrahydro-2H-pyrano[3,4-c]isoquinolin-1-yl)-N-methyl-1H-indole-2-carboxamide], the negative logarithm of the EC50 (pEC50) is 5.92. With `CN(C(=O)c1cc2ccc(F)cc2[nH]1)C1COCc2[nH]c(=O)c3cc(F)ccc3c21` (single isomer, unassigned) [Compound 32, 6-Fluoro-N-(8-fluoro-6-oxo-1,4,5,6-tetrahydro-2H-pyrano[3,4-c]isoquinolin-1-yl)-N-methyl-1H-indole-2-carboxamide], the pEC50 is 7.70. The same measure for `CN(C(=O)c1cc2cccc(F)c2[nH]1)C1COCc2[nH]c(=O)c3cc(F)ccc3c21` (single isomer, unassigned) [Compound 33, 7-Fluoro-N-(8-fluoro-6-oxo-1,4,5,6-tetrahydro-2H-pyrano[3,4-c]isoquinolin-1-yl)-N-methyl-1H-indole-2-carboxamide]: 5.74; for `CN(C(=O)c1cc2cccc(F)c2[nH]1)C1COCc2[nH]c(=O)c3cc(F)ccc3c21` (single isomer, unassigned) [Compound 34, 7-Fluoro-N-(8-fluoro-6-oxo-1,4,5,6-tetrahydro-2H-pyrano[3,4-c]isoquinolin-1-yl)-N-methyl-1H-indole-2-carboxamide]: 7.52; for `CN(C(=O)c1cc2c(F)cc(F)cc2[nH]1)C1COCc2[nH]c(=O)c3cc(F)ccc3c21` (single isomer, unassigned) [Compound 35, 4,6-Difluoro-N-(8-fluoro-6-oxo-1,4,5,6-tetrahydro-2H-pyrano[3,4-c]isoquinolin-1-yl)-N-methyl-1H-indole-2-carboxamide]: 5.85. Take `CN(C(=O)c1cc2c(F)cc(F)cc2[nH]1)C1COCc2[nH]c(=O)c3cc(F)ccc3c21` (single isomer, unassigned) [Compound 36, 4,6-Difluoro-N-(8-fluoro-6-oxo-1,4,5,6-tetrahydro-2H-pyrano[3,4-c]isoquinolin-1-yl)-N-methyl-1H-indole-2-carboxamide]: the pEC50 is 7.70. In the case of `CN(C(=O)c1cc2c(F)c(F)ccc2[nH]1)C1COCc2[nH]c(=O)c3cc(F)ccc3c21` (single isomer, unassigned) [Compound 37, 4,5-Difluoro-N-(8-fluoro-6-oxo-1,4,5,6-tetrahydro-2H-pyrano[3,4-c]isoquinolin-1-yl)-N-methyl-1H-indole-2-carboxamide], the negative-log EC50 (pEC50) is 6.15.

For `CN(C(=O)c1cc2c(F)c(F)ccc2[nH]1)C1COCc2[nH]c(=O)c3cc(F)ccc3c21` (single isomer, unassigned) [Compound 38, 4,5-Difluoro-N-(8-fluoro-6-oxo-1,4,5,6-tetrahydro-2H-pyrano[3,4-c]isoquinolin-1-yl)-N-methyl-1H-indole-2-carboxamide], the pEC50 was 8.00. Consider `CN(C(=O)c1cc2cccc(F)c2[nH]1)C1COCc2[nH]c(=O)c3cc(F)c(F)cc3c21` (single isomer, unassigned) [Compound 39, N-(8,9-Difluoro-6-oxo-1,4,5,6-tetrahydro-2H-pyrano[3,4-c]isoquinolin-1-yl)-7-fluoro-N-methyl-1H-indole-2-carboxamide], for which the pEC50 is 6.11. On to `CN(C(=O)c1cc2cccc(F)c2[nH]1)C1COCc2[nH]c(=O)c3cc(F)c(F)cc3c21` (single isomer, unassigned) [Compound 40, N-(8,9-Difluoro-6-oxo-1,4,5,6-tetrahydro-2H-pyrano[3,4-c]isoquinolin-1-yl)-7-fluoro-N-methyl-1H-indole-2-carboxamide], for which the pEC50 was 8.00. Take `CN(C(=O)c1cc2c(F)cc(F)cc2[nH]1)C1COCc2[nH]c(=O)c3cc(F)c(F)cc3c21` (single isomer, unassigned) [Compound 43, N-(8,9-Difluoro-6-oxo-1,4,5,6-tetrahydro-2H-pyrano[3,4-c]isoquinolin-1-yl)-4,6-difluoro-N-methyl-1H-indole-2-carboxamide]: the pEC50 is 5.74.
